# Experimental data published in US20240197766A1, “TREATMENT OF RNA VIRUS INFECTION WITH A CYTIDINE” (The Cleveland Clinic Foundation, priority 2021, published 2024).
# Several values for one entry are separate records, joined by “and”; a condition that tells them apart may be missing. Equal values may be shown once. Entries after “also recorded” stand apart in the source; their conditions may differ. Read-outs that look alike come from different tables or passages of the source.
# What was measured:
# coronavirus = type: cell-based; conditions: THU 24 hours at clinically relevant concentrations, human lung epithelial cells, plaque assay and QRT-PCR
# [1] = cited from earlier work
# [2] = THU clinical pharmacokinetics, oral 750 mg in healthy volunteers; conditions: male, human, in vivo
# serum uridine levels = test: THU clinical pharmacodynamics: serum uridine and cytidine levels
# Description: Volunteers (3 males; 3 females) received a single THU dose of 750 mg 7 days apart, the 1st dose in a fasted state and the 2nd after a standard FDA meal.
# [3] = system: cytidine analog deamination; test: THU clinical pharmacodynamics: deamination of co-administered cytidine analogs
# host cell = conditions: clinically relevant concentrations, data from Xiong et al.; cited from earlier work
# [4] = read-out: routine Cmax; clinical; cited from earlier work
# CMV = conditions: case series of renal transplantation patients; cited from earlier work
compound,measurement,setting,value
"O=C1NC(O)CCN1[C@@H]1O[C@H](CO)[C@@H](O)[C@H]1O (stereo partly shown) [THU, tetrahydrouridine]",coronavirus (VSV) replication,coronavirus,inhibited coronavirus replication; also recorded: significantly inhibited
same,administered drug excreted through the kidneys within 24 h,"[1]; renal excretion, within 24 h",approximately 50%
same,elimination within 48 hours,[1]; within 48 hours,100%
same,Cmax,[2],2 µM to 8 µM and 500 ng/mL to 2000 ng/mL
same,Tmax,[2],~3 h
same,decrease of uridine availability to non-dividing cells,serum uridine levels; inhibition of 2 CDA-mediated uridine supply routes,≤ 90%
same,serum cytidine levels,serum uridine levels; single THU dose of 750 mg,increasing
same,decrease in serum uridine levels,"serum uridine levels; single THU dose of 750 mg, fasted and fed states, males and females",50-80% and 50-90%
same,reduction of uridine available for systemic salvage,"serum uridine levels; standard, non-toxic doses",up to 90%
same,reduction in cytidine analog deamination,[3],~90%
"C/C(O)=C(\C#N)C(=O)Nc1ccc(C(F)(F)F)cc1 [Teriflunomide, teriflunomide]",host cell cytotoxicity,host cell,minimal
same,Cmax,[4],10 to 100 µM
Cc1oncc1C(=O)Nc1ccc(C(F)(F)F)cc1 [leflunomide],clinical outcome of CMV infection,CMV,cleared virus and/or produced clinical improvement
